The source of these data is ChEMBL document CHEMBL1201862, “PubChem BioAssay data set” (2004).

Test systems include HCT-15; OVCAR-4; SNB-75; NCI-H23; SK-OV-3; KM12; OVCAR-3; UACC-62; A549; Malme-3M; SK-MEL-5; OVCAR-8; SN12C; SK-MEL-28; ACHN; HCT-116; 786-0; UACC-257; HOP-92; HOP-62.
Experiment in all cases: growth of human tumour cells (NCI), 48 h

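Following 48 hours of exposure in 96-well plates, responses at five concentrations were used to interpolate endpoints linearly. The concentration for 50% growth inhibition is given as GI50.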 Calls of active or inactive are those of the source. No stated cut-off is given here; in the data, active = GI50 up to about 1.1 µM and inactive = higher. Where only a bound is given, the exact number is not on record here.

As for `CC12CCC(O)CC1CCC1C2CCC2(C)C(C(=O)CC(O)C(F)(F)F)CCC12` (stereo not given), the GI50 in the experiment with HCT-15 was 9.06 µM; in the experiment on OVCAR-4 it was > 100 µM (inactive); in the experiment with SNB-75 it was 19.3 µM (inactive); with NCI-H23 it was 40.9 µM (inactive); in the experiment with SK-OV-3, 27 µM (inactive); in the experiment on KM12, 17.1 µM (inactive). Moreover, the GI50 is 28.6 µM (inactive) in the experiment on OVCAR-3; 52.2 µM (inactive) in the experiment with UACC-62; 28.9 µM (inactive) in the experiment on A549; 51.3 µM (inactive) in the experiment with Malme-3M; 28.4 µM (inactive) with SK-MEL-5; 55.7 µM (inactive) in the experiment with OVCAR-8. In addition, the GI50 was > 100 µM (inactive) in the experiment with SN12C; 73.5 µM (inactive) in the experiment on SK-MEL-28; 47.6 µM (inactive) with ACHN; 28.4 µM (inactive) in the experiment on HCT-116; 7.46 µM (inactive) with 786-0; 21.6 µM (inactive) with UACC-257. Besides, the GI50 in the experiment with HOP-92 is 31.8 µM (inactive); in the experiment with HOP-62 it was 27.7 µM (inactive).
As to `C/C=C/C(C#N)O[Si](C)(C)C` (stereo not given), the GI50 in the experiment on HCT-15 is greater than 100 µM; with OVCAR-4, > 100 µM (inactive); in the experiment on SNB-75, > 100 µM (inactive); in the experiment with NCI-H23, > 100 µM (inactive); with SK-OV-3 it was > 100 µM (inactive); in the experiment on KM12, > 100 µM (inactive). In addition, the GI50 with OVCAR-3, with UACC-62, with A549, in the experiment with Malme-3M, in the experiment on SK-MEL-5 and in the experiment on OVCAR-8 was > 100 µM (inactive) in each case. In addition, the GI50 in the experiment with SN12C, in the experiment on SK-MEL-28, in the experiment on ACHN, in the experiment with HCT-116, in the experiment with 786-0 and in the experiment with UACC-257 was > 100 µM (inactive) each time. Besides, the GI50 in the experiment on HOP-92 and in the experiment on HOP-62 was > 100 µM (inactive) each time.
In the case of `COC(=O)C(=O)C(C(=O)OC)C(=O)C(=O)Nc1cc(Cl)c(Cl)cc1Cl` (stereo not given), the GI50 in the experiment on HCT-15 is 47.1 µM; in the experiment with OVCAR-4, > 100 µM (inactive); in the experiment on SNB-75, > 100 µM (inactive); with NCI-H23, > 100 µM (inactive); in the experiment on SK-OV-3, > 100 µM (inactive); in the experiment on KM12, > 100 µM (inactive). Also, the GI50 in the experiment on OVCAR-3, with UACC-62, in the experiment with A549, in the experiment with Malme-3M, in the experiment with SK-MEL-5 and in the experiment with OVCAR-8 was > 100 µM (inactive) in each case. Besides, the GI50 with SN12C was > 100 µM (inactive); in the experiment on SK-MEL-28 it was > 100 µM (inactive); with ACHN, > 100 µM (inactive); in the experiment on HCT-116 it was 22.4 µM (inactive); in the experiment with 786-0, > 100 µM (inactive); in the experiment with UACC-257, > 100 µM (inactive). Further, the GI50 in the experiment on HOP-92 and in the experiment on HOP-62 was > 100 µM (inactive) each time.
`O=c1oc2ccccc2cc1-c1cn2cc(Cl)ccc2n1`: the GI50 is 0.298 µM in the experiment on HCT-15; 2.46 µM (inactive) in the experiment with OVCAR-4; 1.76 µM (inactive) with SNB-75; 3.09 µM (inactive) with NCI-H23; 0.773 µM (active) in the experiment with SK-OV-3; 0.296 µM (active) in the experiment with KM12. Moreover, the GI50 was 0.497 µM (active) with OVCAR-3; 0.245 µM (active) with UACC-62; 0.719 µM (active) with A549; 0.458 µM (active) in the experiment with Malme-3M; 0.782 µM (active) in the experiment on SK-MEL-5; 1.71 µM (inactive) in the experiment with OVCAR-8. Also, the GI50 in the experiment on SN12C is 2.98 µM (inactive); with SK-MEL-28, 2.08 µM (inactive); in the experiment on ACHN, 0.586 µM (active); with HCT-116, 0.448 µM (active); with 786-0 it was 1 µM (active); in the experiment on UACC-257 it was 4.58 µM (inactive). In addition, the GI50 with HOP-92 was 5.45 µM (inactive); in the experiment on HOP-62, 0.714 µM (active).
Turning to `O=C1CSC(c2ccc(Cl)cc2Cl)N1c1ccc(Oc2ccc(Cl)cc2)c(Cl)c1` (stereo not given), the GI50 is 25.6 µM in the experiment with HCT-15; 23.8 µM (inactive) in the experiment on OVCAR-4; 20.7 µM (inactive) in the experiment on SNB-75; 27 µM (inactive) in the experiment on NCI-H23; 30.7 µM (inactive) in the experiment on SK-OV-3; 20.2 µM (inactive) in the experiment with KM12. Besides, the GI50 with OVCAR-3 is 17.5 µM (inactive); in the experiment with UACC-62, 21.9 µM (inactive); in the experiment on A549 it was 27 µM (inactive); with Malme-3M it was 16.9 µM (inactive); in the experiment with SK-MEL-5, 19 µM (inactive); in the experiment with OVCAR-8 it was 29.9 µM (inactive). In addition, the GI50 in the experiment with SN12C is 37.7 µM (inactive); in the experiment on SK-MEL-28 it was 39.4 µM (inactive); with ACHN it was 35.7 µM (inactive); in the experiment with HCT-116, 16.9 µM (inactive); in the experiment on 786-0, 17.5 µM (inactive); with UACC-257, 37.1 µM (inactive). The GI50 in the experiment on HOP-92 was 21.8 µM (inactive); in the experiment with HOP-62, 23.8 µM (inactive).
Turning to `C=C(Nc1ccc(OC)cc1OC)C(=O)Cc1cccc[n+]1[O-]`, the GI50 with HCT-15 is greater than 100 µM; with OVCAR-4, > 100 µM (inactive); in the experiment with SNB-75, > 100 µM (inactive); in the experiment with NCI-H23 it was > 100 µM (inactive); with SK-OV-3 it was > 100 µM (inactive); with KM12, > 100 µM (inactive). The GI50 with OVCAR-3, in the experiment with UACC-62, in the experiment on A549, in the experiment on Malme-3M, in the experiment with SK-MEL-5 and in the experiment with OVCAR-8 was > 100 µM (inactive) each time. Further, the GI50 in the experiment on SN12C, in the experiment on SK-MEL-28, in the experiment with ACHN, with HCT-116, in the experiment with 786-0 and with UACC-257 was > 100 µM (inactive) in each case. The GI50 in the experiment with HOP-92 and in the experiment on HOP-62 was > 100 µM (inactive) throughout.
For the compound `CC1=Nc2ccccc2C12C(c1ccccc1)C(c1ccccc1)C(=O)N1c3ccccc3CC12` (stereo not given), the GI50 with HCT-15 is greater than 100 µM; with OVCAR-4, 19.9 µM (inactive); with SNB-75 it was 73.1 µM (inactive); with NCI-H23, > 100 µM (inactive); with SK-OV-3 it was > 100 µM (inactive); in the experiment on KM12 it was > 100 µM (inactive). The GI50 with OVCAR-3, in the experiment on UACC-62, with A549, in the experiment with Malme-3M, with SK-MEL-5 and with OVCAR-8 was > 100 µM (inactive) in each case. For the same compound, the GI50 in the experiment with SN12C, in the experiment with SK-MEL-28, in the experiment with ACHN, in the experiment with HCT-116, with 786-0 and in the experiment with UACC-257 was > 100 µM (inactive) each time. Also, the GI50 in the experiment on HOP-92 and with HOP-62 was > 100 µM (inactive) each time.
For `Cc1cccc(C)c1NC(=O)C(=O)C1C(=O)N(c2ccccc2)N=C1N` (stereo not given), the GI50 in the experiment with HCT-15 is greater than 100 µM; with OVCAR-4, > 100 µM (inactive); in the experiment with SNB-75 it was 94.4 µM (inactive); in the experiment on NCI-H23, > 100 µM (inactive); in the experiment with SK-OV-3, > 100 µM (inactive); in the experiment with KM12, > 100 µM (inactive). In addition, the GI50 in the experiment with OVCAR-3, in the experiment with UACC-62, with A549, in the experiment on Malme-3M, in the experiment on SK-MEL-5 and in the experiment with OVCAR-8 was > 100 µM (inactive) throughout. The GI50 with SN12C, in the experiment with SK-MEL-28, in the experiment with ACHN, in the experiment with HCT-116, in the experiment on 786-0 and in the experiment on UACC-257 was > 100 µM (inactive) in each case. The GI50 with HOP-92 and in the experiment on HOP-62 was > 100 µM (inactive) in each case.
In the case of `COc1cc2c(cc1O)CC[C@@H]1C2CC[C@@]2(C)C1CC[C@@H]2O` (stereo not given in full), the GI50 in the experiment on HCT-15 is 0.566 µM; with OVCAR-4 it was 29.6 µM (inactive); in the experiment with SNB-75 it was 1.07 µM (active); in the experiment on NCI-H23, 2.05 µM (inactive); in the experiment with SK-OV-3, 3.22 µM (inactive); in the experiment with KM12, 4.43 µM (inactive). The GI50 in the experiment with OVCAR-3 is 0.634 µM (active); with UACC-62, 1.21 µM (inactive); with A549, 4.48 µM (inactive); in the experiment with Malme-3M, 0.771 µM (active); in the experiment on SK-MEL-5 it was 1.35 µM (inactive); in the experiment with OVCAR-8 it was 2 µM (inactive). For the same compound, the GI50 with SN12C was 6.85 µM (inactive); with SK-MEL-28, 3.7 µM (inactive); in the experiment with ACHN, 9.84 µM (inactive); in the experiment on HCT-116, 1.19 µM (inactive); in the experiment on 786-0, 2.07 µM (inactive); with UACC-257, 11.2 µM (inactive). In addition, the GI50 in the experiment with HOP-92 was 10.7 µM (inactive); with HOP-62, 2.28 µM (inactive).
`COC(=O)C1CCC(=O)N1C(c1ccc2c(c1)OCO2)c1cc(OC)c(OC)c(OC)c1` (stereo not given): the GI50 is greater than 100 µM in the experiment with HCT-15; > 100 µM (inactive) with OVCAR-4; > 100 µM (inactive) with SNB-75; > 100 µM (inactive) with NCI-H23; > 100 µM (inactive) in the experiment with SK-OV-3; > 100 µM (inactive) with KM12. Also, the GI50 with OVCAR-3, in the experiment on UACC-62, with A549, with Malme-3M, with SK-MEL-5 and in the experiment on OVCAR-8 was > 100 µM (inactive) in each case. In addition, the GI50 in the experiment with SN12C, in the experiment on SK-MEL-28, in the experiment with ACHN, with HCT-116, in the experiment on 786-0 and with UACC-257 was > 100 µM (inactive) each time. The GI50 in the experiment with HOP-92 and in the experiment on HOP-62 was > 100 µM (inactive) throughout.
